Data: patent publication US20070282004A1, “Use of a Cyclopentenone Prostaglandin for Delaying for the Onset and/or Preventing the Continuation of Labour” (Imperial College Innovations Limited, priority 2003, published 2007)
Each block holds one molecule with its values, some of them ahead of it. Residues, ends and D or L forms follow the SMILES beside them. *: point of attachment. Cbz = O=C(OCc1ccccc1)*

Columns and labels:
[1] = system: contractions of pre-term labour; conditions: people; cited from earlier work
NF-κB [2] = assay: NF-κB-dependent luciferase reporter (κB.BG.Luc) in myometrial cells; assay type: cell-based, human; conditions: 200 ng PPAR-γ expression vector, 10 mM troglitazone 7 h, IL-1β 17 h
NF-κB [3] = target: T1, NF-κB (Homo sapiens, UniProt P19838+Q04206); assay: EMSA of NF-κB DNA binding in nuclear extracts of treated myometrial cells; assay type: cell-based; conditions: myometrial cells; for Stimulation of NF-κB activity / induction of NFκB DNA binding by the compound alone: no cytokine; for IL-1β-induced NF-κB DNA binding (EMSA): then IL-1β 15 min
T1 construct: nuclear protein extracts from myometrial cells; endogenous in cells; host or cells: primary human myometrial cells (term, passage 1-4)
T1 sequence (Q04206 whole entry): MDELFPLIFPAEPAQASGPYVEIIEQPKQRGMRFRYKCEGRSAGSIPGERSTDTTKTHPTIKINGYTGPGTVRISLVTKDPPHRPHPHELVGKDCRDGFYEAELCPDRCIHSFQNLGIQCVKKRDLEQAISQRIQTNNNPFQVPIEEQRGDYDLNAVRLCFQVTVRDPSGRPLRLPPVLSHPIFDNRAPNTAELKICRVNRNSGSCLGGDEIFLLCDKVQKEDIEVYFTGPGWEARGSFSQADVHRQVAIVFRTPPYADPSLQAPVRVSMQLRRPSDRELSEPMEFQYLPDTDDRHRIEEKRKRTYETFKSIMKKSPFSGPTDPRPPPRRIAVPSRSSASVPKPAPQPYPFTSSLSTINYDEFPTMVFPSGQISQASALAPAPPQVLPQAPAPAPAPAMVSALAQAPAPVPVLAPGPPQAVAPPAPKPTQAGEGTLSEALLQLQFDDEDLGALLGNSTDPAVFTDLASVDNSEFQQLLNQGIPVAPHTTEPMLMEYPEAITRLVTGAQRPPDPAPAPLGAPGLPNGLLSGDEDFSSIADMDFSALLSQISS
T1 sequence (P19838 1-433 limits assumed): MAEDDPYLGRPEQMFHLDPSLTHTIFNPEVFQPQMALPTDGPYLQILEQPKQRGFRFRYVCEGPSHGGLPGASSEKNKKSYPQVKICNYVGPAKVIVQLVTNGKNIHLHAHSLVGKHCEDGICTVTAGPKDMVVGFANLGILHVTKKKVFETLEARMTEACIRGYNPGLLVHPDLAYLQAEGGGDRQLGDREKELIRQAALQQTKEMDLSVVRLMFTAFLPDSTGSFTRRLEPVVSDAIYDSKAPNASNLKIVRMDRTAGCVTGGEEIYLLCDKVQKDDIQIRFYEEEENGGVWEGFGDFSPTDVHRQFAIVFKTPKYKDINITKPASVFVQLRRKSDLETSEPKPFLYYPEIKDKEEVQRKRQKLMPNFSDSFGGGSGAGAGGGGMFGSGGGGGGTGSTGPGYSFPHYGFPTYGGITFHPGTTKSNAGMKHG
Experimental: (§1) Myometrial tissue was collected at term from the upper margin of uterine incision at the time of lower segment caesarean section either prior to the onset of labour (L−) or […] (L+). L+ samples were collected by Dr Mark Johnson and Dr S Soorrana at Chelsea & Westminster Hospital. Myometrial tissue was dissected, rinsed in PBS, and digested in serum-free DMEM containing 15 mg/ml collagenase 1A (Sigma), 15 mg/ml collagenase X, and 50 mg/ml bovine serum albumin for 45 min at 37° C. The cell suspension was filtered through a cell strainer, centrifuged at 400 g for 5 min, and the pellet re-suspended and plated out in DMEM, 10% FCS (Helena BioScience), 1% L-glutainine, 1% penicillin-streptomycin. Cells were used between passage numbers 1-4.
(§2) Nuclear and cytosolic protein extracts were obtained from cultured amnion cells as described by Schreiber et al (1989). For nuclear/cytosolic fractionation, confluent cell monolayers were scraped and lysed using a buffer containing 10 mM HEPES, 10 mM KCl, 0.1 mM EDTA, 0.1 mM EGTA, 2 mM DTT, 1% (v/v) NP-40 and complete protease inhibitor tablets (CPIs, Roche), diluted to manufacturer's instructions. Cell lysates were incubated on ice for 10 min and NP-40 added to a final concentration of 1% (v/v). Lysates were vortexed for 10 secs and centrifuged for 30 secs at 4° C., 12000 g. The supernatants were retained as the cytosolic protein extracts. The pellets were resuspended in buffer containing 10 mM HEPES, 10 mM KCl, 0.1 mM EDTA, 0.1 mM EGTA, 2 mM DTT, 400 mM NaCl, 1% NP-40 (v/v) and CPIs. Samples were shaken vigorously for 15 min in an ice bath. The nuclear protein extracts were obtained in the supernatant following a 5 min centrifugation at 4° C., 12000 g.
(§3) Sense and antisense strands (175 nmole/ml each) were incubated in annealing buffer (10 mM Tris-HCl pH7.5, 100 mM NaCl, 1 mM EDTA) for 10 min at 65° C., and allowed to cool at room temperature for 2 h. 3.5 pmole double-stranded oligonucleotides were end-labelled with 0.37 MBq ^32P(γATP) by incubating for 30 min at 37° C. with T4 polynucleotide kinase. Labelled oligonucleotides were recovered by centrifugation at 3000 rpm for 2 min through MicroSpin G-25 or G-50 sephadex columns (Amersham Biosciences).
(§4) 3-5 μg protein extracts were incubated on ice for 1 h with non-radiolabelled non-specific oligonucleotide (poly(dI-dC) or Oct-1) in a binding buffer (20% (v/V) glycerol, 5 mM MgCl2, 2 mM EDTA, 50 mM Tris-HCl pH7.5, 250 mM NaCl, 2 mM DTT), followed by a 45 min incubation with 0.035 pmole ^32P(γ(ATP)-end labelled oligonucleotide probes:
(§5) Oct-1 or SP-1 consensus sequences were used as a controls for a NF-κB-specific effect. The resulting protein/DNA complexes were separated in a 4% acrylamide gel, the gel dried under vacuum at 80° C. and exposed to X-ray film. For supershift analysis, samples were incubated with 2 μg antibodies for 30 min on ice prior to incubation with oligonucleotides. Non-radio-labelled oligonucleotides were used at 100-fold molar excess for specific and non-specific competition for DNA binding. Reagents for EMSA were obtained from Promega Life Sciences, Delta House, Chilworth Research Centre, Southampton SO16 7NS, United Kingdom.

PPAR-γ = target: T2, PPAR-γ (Homo sapiens, UniProt P37231); conditions: as stated from the literature; cited from earlier work
T2 sequence (P37231 1-505): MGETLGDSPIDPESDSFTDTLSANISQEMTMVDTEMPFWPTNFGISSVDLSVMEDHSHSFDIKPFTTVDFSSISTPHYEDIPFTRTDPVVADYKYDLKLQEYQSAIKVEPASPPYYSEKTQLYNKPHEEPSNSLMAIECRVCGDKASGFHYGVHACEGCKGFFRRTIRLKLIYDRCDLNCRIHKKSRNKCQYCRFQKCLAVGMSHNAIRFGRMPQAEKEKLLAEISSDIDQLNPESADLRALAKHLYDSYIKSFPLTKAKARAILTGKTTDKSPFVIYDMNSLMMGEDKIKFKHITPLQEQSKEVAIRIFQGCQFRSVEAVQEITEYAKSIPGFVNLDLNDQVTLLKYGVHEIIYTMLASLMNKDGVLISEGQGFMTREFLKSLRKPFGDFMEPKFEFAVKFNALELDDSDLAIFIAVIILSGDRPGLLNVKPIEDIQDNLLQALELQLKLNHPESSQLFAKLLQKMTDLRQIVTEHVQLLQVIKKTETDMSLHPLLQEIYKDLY

NF-κB [4] = target: T1, NF-κB; assay: EMSA of NF-κB DNA binding in nuclear extracts of treated amnion cells; assay type: cell-based
Experimental: (§6) Placentae were obtained from patients at term either at elective Caesarean section prior to labour (L−) or following spontaneous labour onset and vaginal delivery (L+). Amnion cells were prepared as described in Bennett et al., (1989). Briefly, the amnion was separated from the placenta, washed 3× in PBS, cut into strips, and incubated in 0.5 mM EDTA in PBS for 15 min. The strips were washed in PBS 2× and digested with 2.5 mg/ml dispase in serum-free DMEM for 35 min at 37° C. The amnion was then shaken vigorously in DMEM, 10% FCS to dissociate the cells, the remaining strips discarded, and the cell suspension pelleted at 175 g for 10 min and cultured in DMEM, 10% FCS (Sigma), 1% L-glutamine, 1% penicillin-streptomycin.
as §2, §3, §4, §5

NF-κB [5] = assay: Western immunoblot of p65, p50, IκB in myometrial cell extracts; assay type: cell-based, human; conditions: myometrial cells, IL-1β 15 min
Experimental: (§7) Western immunoblots of nuclear or cytosolic protein extracts from (A) myometrial cells, (B) L− amnion cells, and (C) L+ amnion cells treated with 15dPGJ2 or vehicle for 2 h±IL-1β stimulation (15 min). Blots probed with antibodies against p65, p50 or IκBα.
Western immunoblots of nuclear or cytosolic protein extracts from myometrial cells treated with PGA1 or vehicle for 2 h followed by IL-1β stimulation (15 min). Blots probed with antibodies against p65 or IκBa.
Western immunoblots of cytosolic extracts from myometrial cells (A) treated with 15dPGJ2 for 2h±IL1b for 15 min; probed for IKK, and (B) treated with […] 15dPGJ2, […] MG132 or vehicle for 2 h, ±IL-1β for 15 min; probed for IκBα.
(A) NF-κB-DNA binding was measured by EMSA in nuclear protein extracts from myometrial cells pre-treated with vehicle, 15d-PGJ2 or PGA1 for 2 h, followed by stimulation with IL-1β (1 ng/ml) for 15 min. Antibodies against p50 and p65 were used for supershift analysis. (B) Myometrial cells were transiently transfected with a NF-κB-LUC reporter and a β-gal reporter plasmid, pre-treated with vehicle or PGA1 for 2 h, and stimulated with IL-1β (1 ng/ml) for 6 h. Luciferase activity was normalized for β-gal reporter readout. Values are presented as the mean±SEM obtained for each treatment done in triplicate. Western blot analysis of nuclear p65 and p50 expression in myometrial cells treated with (C) PGA1 or (D) 15d-PGJ2 for 2 h, followed by stimulation with IL-1β (1 ng/ml) for 15 min. (E) Western blot analysis of whole cell lysates from myometrial cells treated with 15d-PGJ2 or 9,10-dihydro-15d-PGJ2 for 2 h, followed by stimulation with IL-1β (1 ng/ml) for 15 min. Membranes were probed with antibodies against p65 and Ser 536-phosphorylated p65.
as §1, §2
Protein samples (20-70 μg) were mixed with Laemmli sample buffer (1:1) containing β-mercaptoethanol (5%), and boiled for 5 min. Proteins were then separated by SDS-PAGE (12-14% gels) and transferred onto PVDF membrane (Amersham Pharmacia Biotech). The membranes were blocked overnight in 5% non-fat milk prepared in PBS-T buffer, at 4° C. The blots were incubated with the primary antibody in 1% non-fat milk in PBS-T buffer for 1 h, and washed three times (10 min each) in PBS-T with vigorous shaking. […]

NF-κB [6] = assay: Western immunoblot of p65, p50, IκB in amnion cell extracts; assay type: cell-based, human; conditions: L−, L+ amnion cells, treated 2 h, IL-1β 15 min
Experimental: as §7, §6, §2
Protein samples (20-70 μg) were mixed with Laemmli sample buffer (1:1) containing β-mercaptoethanol (5%), and boiled for 5 min. Proteins were then separated by SDS-PAGE (12-14% gels) and transferred onto PVDF membrane (Amersham Pharmacia Biotech). The membranes were blocked overnight in 5% non-fat milk prepared in PBS-T buffer, at 4° C. The blots were incubated with the primary antibody in 1% non-fat milk in PBS-T buffer for 1 h, and washed three times (10 min each) in PBS-T with vigorous shaking. The blots were then incubated with HRP-conjugated secondary antibody (diluted 1:2000 in 1% non-fat milk in PBS-T buffer) for 1 h and washed three times (10 min each) in PBS-T. Signal detection was achieved using enhanced chemi-luminescence (ECL plus system, Amersham Pharmacia Biotech) according to manufacturer's instructions.
30-50 μg protein extracts were subjected to SDS-PAGE and Western immuno-blotting. Secondary antibodies were IgG-HRP and ECL Plus detection kit (Amersham Pharmacia Biotech, Amersham Place, Little Chalfont, Bucks, HP7 9NA) was used for visualisation.

NF-κB [7] = assay: NF-κB-dependent luciferase reporter (κB.BG.Luc) in myometrial cells; assay type: cell-based, human; conditions: treated 2 h, IL-1β 1 ng/ml 6 h
Experimental: Myometrial cells were transiently transfected with the NFκB-dependent reporter construct κB.BG.Luc, treated with 15dPGJ2 or vehicle for 2 h, ±IL-1β (1 ng/ml) for 6 h. […] Values are normalised for b-gal reporter activity. (NS=nonstimulated).
Myometrial cells were transfected with […] κB.BG.Luc reporter and 200 ng PPAR-γ expression vector and treated with 15d-PGJ2 for 2 h followed by IL-1β (1 ng/ml) for 6 h. Values are normalised for β-galactosidase reporter activity. (NS=nonstimulated).
as §1
pGL3.6κB.BG.luc: a NF-κB-dependent reporter construct with 6 copies of the NF-κB binding site.
Cells were co-transfected with the renilla vector pRL-CMV or β-galactosidase vector pCH110 as internal controls for transfection efficiencies.

[8] = system: ductus arteriosus, fetal urine output; conditions: in vivo; cited from earlier work

Compound: COc1ccc2c(c1)c(CC(=O)O)c(C)n2C(=O)c1ccc(Cl)cc1 [Indomethacin]
Tocolytic efficacy [1]: effective in preventing the contractions

Compound: Cc1c(C)c2c(c(C)c1O)CCC(C)(COc1ccc(CC3SC(=O)NC3=O)cc1)O2 (centres unmarked) [troglitazone]
NF-κB-dependent reporter in PPARγ-transfected cells (NF-κB [2]): does not inhibit

Stimulation of NF-κB activity / induction of NFκB DNA binding by the compound alone (NF-κB [3]): does not induce
TNFα- and IL-1β-induced NFκB activation (EMSA, nuclear p65) (NF-κB [3]; treated 2 h, TNFα or IL-1β 15 min): does not inhibit
Induction of NFκB DNA binding by the compound alone (NF-κB [4]; L− amnion cells, no cytokine): does not induce
Compound: CCCCC[C@H](O)/C=C/[C@H]1[C@H](O)CC(=O)[C@@H]1C/C=C\CCCC(=O)O [PGE2, prostaglandin E2, reference compound]
PPAR agonist / ligand activity (PPAR-γ): does not activate PPAR-γ

Compound: CC(C)C[C@@H](C=O)NC(=O)[C@H](CC(C)C)NC(=O)[C@H](CC(C)C)NC(=O)OCc1ccccc1 [MG132, reference compound] (Cbz-Leu-Leu-Leu-aldehyde)
Accumulation of phosphorylated IκBα (NF-κB [5]; 2 h): resulted in the accumulation

Synergy with IL-1β or TNFα on NF-κB activity (NF-κB [3]): nor did it synergise
Stimulation of NF-κB activity / induction of NFκB DNA binding by the compound alone (NF-κB [3]): neither did it stimulate
IL-1β-induced NF-κB DNA binding (EMSA) (NF-κB [3]; treated 2 h): did not inhibit
IL-1β-induced NF-κB DNA binding (EMSA) (NF-κB [4]; L− and L+ amnion cells, treated 2 h, then IL-1β 15 min): did not inhibit
Compound: CCCCC(C)(C)[C@H](O)/C=C/[C@H]1[C@H](O)CC(=O)[C@@H]1C/C=C\CCCC(=O)O [16,16-Dimethyl-PGE2, reference compound]
IL-1β-induced p65 nuclear translocation (NF-κB [6]): did not inhibit
IL-1β-induced p65 nuclear translocation (NF-κB [5]; treated 2 h): did not inhibit

IL-1β-induced NF-κB DNA binding (EMSA) (NF-κB [3]; treated 2 h): failed to inhibit
Compound: CN(CCOc1ccc(C[C@H](Nc2ccccc2C(=O)c2ccccc2)C(=O)O)cc1)c1ccccn1 [GW1929, reference compound]
IL-1β-induced NF-κB transcriptional activity (κB.BG.Luc reporter) (NF-κB [7]): does not inhibit

Compound: CCCCCC=CC=C1CCC(=O)C1CC=CCCCC(=O)O (centres unmarked) [9,10-dihydro-15d-PGJ2, 9,10-di-hydro-15-deoxy-Δ^12,14-Prostaglandin J2, reference compound]
PPAR agonist / ligand activity (PPAR-γ): retains PPARγ agonist activity
Reproduction of the effects of 15d-PGJ2 on NF-κB (incl. Ser 536-phosphorylated p65) (NF-κB [5]; 2 h, similar in amnion epithelial cells): could not reproduce the effects

Compound: CC1=C(CC(=O)O)c2cc(F)ccc2/C1=C\c1ccc([S+](C)[O-])cc1 (centres unmarked) [Sulindac]
Tocolytic efficacy [1]: equally good
Effect on ductal patency [8]: minimal effect
Fetal urine output [8]: smaller reduction
